Experimental data taken from patent publication US9434725B2, “5-azaindazole compounds and methods of use” (priority 2012, dated 2016).

How the values were obtained:
PIM2 = PIM2 (Homo sapiens (Human), UniProt Q9P1W9); test: Pim kinase binding activity, Caliper LC3000 microfluidic peptide phosphorylation assay, PIM2; format: biochemical; conditions: 10 μM ATP, 90 min, room temperature; read-out: PIM2 LC3K (KI)
Description: (§1) A fluorescent-labeled Pim-specific peptide substrate, was custom synthesized by American Peptide Company (Sunnyvale, Calif.). Reaction Buffer contained 10 mM HEPES, pH 7.2, 10 mM MgCl2, 0.01% Tween 20, 2 mM DTT. Termination Buffer contained 190 mM HEPES, pH 7.2, 0.015% Brij-35, 0.2% Coating Reagent 3 (Caliper Life Sciences, Hopkinton, Mass.), 20 mM EDTA. Separation Buffer contained 100 mM HEPES, pH 7.2, 0.015% Brij-35, 0.1% Coating Reagent 3, 1:200 Coating Reagent 8 (Caliper Life Sciences, Hopkinton, Mass.), 10 mM EDTA and 5% DMSO.
(§2) PIM reactions were carried out in a final volume of 10 μL per well in a 384-well plate. […] After 90 minutes of incubation at room temperature, the phosphorylation reaction was stopped by the addition of 10 μL Termination Buffer. The product and substrate in each independent reaction were separated on a 12-sipper microfluidic chip (Caliper Life Sciences, Hopkinton, Mass.) run on a Caliper LC3000® (Caliper Life Sciences, Hopkinton, Mass.). The separation of product and substrate was optimized by choosing voltages and pressure using Caliper's Optimizer software (Hopkinton, Mass.). […] Substrate conversion was calculated from the electropherogram using HTS Well Analyzer software (Caliper Life Sciences, Hopkinton, Mass.). Ki values for the test compound were calculated.

PIM3 = PIM3 (Homo sapiens (Human), UniProt Q86V86); test: Pim kinase binding activity, Caliper LC3000 microfluidic peptide phosphorylation assay, PIM3; format: biochemical; conditions: 10 μM ATP, 90 min, room temperature; read-out: PIM3 LC3K (KI)
Description: as §1, §2

PIM2, sequence (Q9P1W9 whole entry): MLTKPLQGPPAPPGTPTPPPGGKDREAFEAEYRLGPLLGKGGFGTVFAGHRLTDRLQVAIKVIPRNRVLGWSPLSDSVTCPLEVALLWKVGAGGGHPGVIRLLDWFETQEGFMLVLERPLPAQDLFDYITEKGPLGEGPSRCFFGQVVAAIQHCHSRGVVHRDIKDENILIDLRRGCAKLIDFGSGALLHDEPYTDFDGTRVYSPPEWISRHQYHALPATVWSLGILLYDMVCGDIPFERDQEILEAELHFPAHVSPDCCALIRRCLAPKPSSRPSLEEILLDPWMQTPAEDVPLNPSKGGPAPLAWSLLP

Compound	Ki (PIM2) [nM]	Ki (PIM3) [nM]
CCc1cncc(-c2cc3c(cn2)cnn3-c2cccc(N3CCNC[C@H](O)C3)n2)c1 (single isomer, unassigned) [Compound 121]	10.5	0.301
Cc1cncc(-c2cc3c(cn2)cnn3-c2cccc(N3CCCC(N)C3C)n2)n1 (single isomer, unassigned) [Compound 203, 2-methyl-1-[6-[6-(6-methylpyrazin-2-yl)pyrazolo[4,3-c]pyridin-1-yl]-2-pyridyl]piperidin-3-amine]	4.83	0.331
Cc1cncc(-c2cc3c(cn2)cnn3-c2cccc(N3CCCC(N)C3C)n2)n1 (single isomer, unassigned) [Compound 204, 2-methyl-1-[6-[6-(6-methylpyrazin-2-yl)pyrazolo[4,3-c]pyridin-1-yl]-2-pyridyl]piperidin-3-amine]	0.477	0.025
CCn1cc(-c2cc3c(cn2)cnn3-c2cccc(N3CCNCC3)n2)cn1 [Compound 101, 6-(1-ethylpyrazol-4-yl)-1-(6-piperazin-1-yl-2-pyridyl)pyrazolo[4,3-c]pyridine]	14.6	0.676
CC(C)c1cncc(-c2cc3c(cn2)cnn3-c2cccc(N3CCCNCC3)n2)c1 [Compound 103, 1-(6-(1,4-diazepan-1-yl)pyridin-2-yl)-6-(5-isopropylpyridin-3-yl)-1H-pyrazolo[4,3-c]pyridine]	2.76	0.065
CC(C)c1cncc(-c2cc3c(cn2)cnn3-c2cccc(N3CCNCC3)n2)c1 [Compound 105, 6-(5-isopropylpyridin-3-yl)-1-(6-(piperazin-1-yl)pyridin-2-yl)-1H-pyrazolo[4,3-c]pyridine]	7.14	0.183
CCc1cncc(-c2cc3c(cn2)cnn3-c2cccc(N3CCNCC(O)C3)n2)c1 (centres unmarked) [Compound 106, 1-(6-(6-(5-ethylpyridin-3-yl)-1H-pyrazolo[4,3-c]pyridin-1-yl)pyridin-2-yl)-1,4-diazepan-6-ol]	7.26	
CC(C)c1cncc(-c2cc3c(cn2)cnn3-c2cccc(N3CCC[C@@H](N)C3)n2)c1 [Compound 107, (R)-1-(6-(6-(5-isopropylpyridin-3-yl)-1H-pyrazolo[4,3-c]pyridin-1-yl)pyridin-2-yl)piperidin-3-amine]	9.58	0.203
CC(C)c1cncc(-c2cc3c(cn2)cnn3-c2cccc(N3CCC[C@H](N)C3)n2)c1 [Compound 108, (3S)-1-[6-[6-(5-isopropyl-3-pyridyl)pyrazolo[4,3-c]pyridin-1-yl]-2-pyridyl]piperidin-3-amine]	1.93	0.049
Cc1cc(-c2cc3c(cn2)cnn3-c2cccc(N3CCCNCC3)n2)sn1 [Compound 120, 5-[1-[6-(1 4-diazepan-1-yl)-2-pyridyl]pyrazolo[4,3-c]pyridin-6-yl]-3-methyl-isothiazole]	4.66	0.168
CCn1cc(-c2cc3c(cn2)cnn3-c2cccc(N3CCCNCC3)n2)cn1 [Compound 125, 1-(6-(1,4-diazepan-1-yl)pyridin-2-yl)-6-(1-ethyl-1H-pyrazol-4-yl)-1H-pyrazolo[4,3-c]pyridine]	4.27	
CCc1cncc(-c2cc3c(cn2)cnn3-c2ccc(C3CC3)c(N3CCC[C@H](N)C3)n2)c1 [Compound 139, (S)-1-(3-cyclopropyl-6-(6-(5-ethylpyridin-3-yl)-1H-pyrazolo[4,3-c]pyridin-1-yl)pyridin-2-yl)piperidin-3-amine]	0.187	0.035
CCc1cncc(-c2cc3c(cn2)cnn3-c2cccc(N3CCC[C@H](N)C3)n2)n1 [Compound 156, (3S)-1-[6-[6-(6-ethylpyrazin-2-yl)pyrazolo[4,3-c]pyridin-1-yl]-2-pyridyl]piperidin-3-amine]	0.37	0.014
FC(F)Cn1cc(-c2cc3c(cn2)cnn3-c2cccc(N3CCCNCC3)n2)cn1 [Compound 162, 1-(6-(1,4-Diazepan-1-yl)pyridin-2-yl)-6-(1-(2,2-difluoroethyl)-1H-pyrazol-4-yl)-1H-pyrazolo[4,3-c]pyridine]	2.26	0.814
Cc1cncc(-c2cc3c(cn2)cnn3-c2cccc(C3CCNCC3)n2)n1 [Compound 166, 6-(6-methylpyrazin-2-yl)-1-[6-(4-piperidyl)-2-pyridyl]pyrazolo[4,3-c]pyridine]	4.62	0.447
Cc1cncc(-c2cc3c(cn2)cnn3-c2cccc(N3CC[C@H](N)C3)n2)n1 [Compound 167, (3S)-1-[6-[6-(6-methylpyrazin-2-yl)pyrazolo[4,3-c]pyridin-1-yl]-2-pyridyl]pyrrolidin-3-amine]	2.27	0.34
Cc1cncc(-c2cc3c(cn2)cnn3-c2ccc(Cl)c(N3CCC[C@H](N)C3)n2)n1 [Compound 176, (S)-1-(3-chloro-6-(6-(6-methylpyrazin-2-yl)-1H-pyrazolo[4,3-c]pyridin-1-yl)pyridin-2-yl)piperidin-3-amine]	0.317	0.047
FC(F)(F)Cn1cc(-c2cc3c(cn2)cnn3-c2ccnc(N3CCCNCC3)n2)cn1 [Compound 179, 1-(2-(1,4-Diazepan-1-yl)pyrimidin-4-yl)-6-(1-(2,2,2-trifluoroethyl)-1H-pyrazol-4-yl)-1H-pyrazolo-[4,3-c]pyridine]		1.76
c1cc(N2CCCNCC2)nc(-n2ncc3cnc(-c4cn[nH]c4)cc32)c1 [Compound 180, 1-(6-(1,4-Diazepan-1-yl)pyridin-2-yl)-6-(1H-pyrazol-4-yl)-1H-pyrazolo[4,3-c]pyridine]	1.6	0.086
Cc1cncc(-c2cc3c(cn2)cnn3-c2cccc(N3CCNC(C)CC3)n2)n1 (centres unmarked) [Compound 184, 1-[6-(5-methyl-1 4-diazepan-1-yl)-2-pyridyl]-6-(6-methylpyrazin-2-yl)pyrazolo[4,3-c]pyridine]	2.42	0.076
Cc1cncc(-c2cc3c(cn2)cnn3-c2cccc(N3CCCCC(N)C3)n2)n1 (centres unmarked) [Compound 187, 1-[6-[6-(6-methylpyrazin-2-yl)pyrazolo[4,3-c]pyridin-1-yl]-2-pyridyl]azepan-3-amine]	1.06	
Cc1cncc(-c2cc3c(cn2)cnn3-c2cccc(N3CCNC[C@H]3C)n2)n1 [Compound 191, 1-[6-[(2R)-2-methylpiperazin-1-yl]-2-pyridyl]-6-(6-methylpyrazin-2-yl)pyrazolo[4,3-c]pyridine]	0.659	0.033
Cc1cncc(-c2cc3c(cn2)cnn3-c2cccc(N3CCNC[C@@H]3C)n2)n1 [Compound 196, 1-[6-[(2S)-2-methylpiperazin-1-yl]-2-pyridyl]-6-(6-methylpyrazin-2-yl)pyrazolo[4,3-c]pyridine]	0.864	
Cc1cncc(-c2cc3c(cn2)cnn3-c2ccc(C(F)F)c(N3CCC[C@H](N)C3)n2)n1 [Compound 227, (S)-1-(3-(difluoromethyl)-6-(6-(6-methylpyrazin-2-yl)-1H-pyrazolo[4,3-c]pyridin-1-yl)pyridin-2-yl)piperidin-3-amine]		0.019
Cc1cncc(-c2cc3c(cn2)cnn3-c2ccc(=O)n([C@H]3CCCNC3)n2)n1 [Compound 289, (S)-6-(6-(6-methylpyrazin-2-yl)-1H-pyrazolo[4,3-c]pyridin-1-yl)-2-(piperidin-3-yl)pyridazin-3(2H)-one]	1000	
Cc1cncc(-c2cc3c(cn2)cnn3-c2cccc(N(C)C)n2)n1 [Compound 296, N,N-dimethyl-6-(6-(6-methylpyrazin-2-yl)-1H-pyrazolo[4,3-c]pyridin-1-yl)pyridin-2-amine]		0.562
